Measurements: patent publication US11198680B2 (BioAxone BioSciences, Inc., priority 2016, dated 2021)
Read-outs that look alike come from different tables or passages of the source.

Columns and labels:
ROCK2 [1] = molecular target: T1, ROCK2 (Homo sapiens (Human), UniProt O75116); experiment: Direct filter-binding radiometric kinase assay, IC50 determination; format: biochemical
ROCK1 [2] = molecular target: T2, ROCK1 (Homo sapiens (Human), UniProt Q13464); experiment: as above; format: biochemical
T2 sequence (Q13464 2-1354 limits assumed): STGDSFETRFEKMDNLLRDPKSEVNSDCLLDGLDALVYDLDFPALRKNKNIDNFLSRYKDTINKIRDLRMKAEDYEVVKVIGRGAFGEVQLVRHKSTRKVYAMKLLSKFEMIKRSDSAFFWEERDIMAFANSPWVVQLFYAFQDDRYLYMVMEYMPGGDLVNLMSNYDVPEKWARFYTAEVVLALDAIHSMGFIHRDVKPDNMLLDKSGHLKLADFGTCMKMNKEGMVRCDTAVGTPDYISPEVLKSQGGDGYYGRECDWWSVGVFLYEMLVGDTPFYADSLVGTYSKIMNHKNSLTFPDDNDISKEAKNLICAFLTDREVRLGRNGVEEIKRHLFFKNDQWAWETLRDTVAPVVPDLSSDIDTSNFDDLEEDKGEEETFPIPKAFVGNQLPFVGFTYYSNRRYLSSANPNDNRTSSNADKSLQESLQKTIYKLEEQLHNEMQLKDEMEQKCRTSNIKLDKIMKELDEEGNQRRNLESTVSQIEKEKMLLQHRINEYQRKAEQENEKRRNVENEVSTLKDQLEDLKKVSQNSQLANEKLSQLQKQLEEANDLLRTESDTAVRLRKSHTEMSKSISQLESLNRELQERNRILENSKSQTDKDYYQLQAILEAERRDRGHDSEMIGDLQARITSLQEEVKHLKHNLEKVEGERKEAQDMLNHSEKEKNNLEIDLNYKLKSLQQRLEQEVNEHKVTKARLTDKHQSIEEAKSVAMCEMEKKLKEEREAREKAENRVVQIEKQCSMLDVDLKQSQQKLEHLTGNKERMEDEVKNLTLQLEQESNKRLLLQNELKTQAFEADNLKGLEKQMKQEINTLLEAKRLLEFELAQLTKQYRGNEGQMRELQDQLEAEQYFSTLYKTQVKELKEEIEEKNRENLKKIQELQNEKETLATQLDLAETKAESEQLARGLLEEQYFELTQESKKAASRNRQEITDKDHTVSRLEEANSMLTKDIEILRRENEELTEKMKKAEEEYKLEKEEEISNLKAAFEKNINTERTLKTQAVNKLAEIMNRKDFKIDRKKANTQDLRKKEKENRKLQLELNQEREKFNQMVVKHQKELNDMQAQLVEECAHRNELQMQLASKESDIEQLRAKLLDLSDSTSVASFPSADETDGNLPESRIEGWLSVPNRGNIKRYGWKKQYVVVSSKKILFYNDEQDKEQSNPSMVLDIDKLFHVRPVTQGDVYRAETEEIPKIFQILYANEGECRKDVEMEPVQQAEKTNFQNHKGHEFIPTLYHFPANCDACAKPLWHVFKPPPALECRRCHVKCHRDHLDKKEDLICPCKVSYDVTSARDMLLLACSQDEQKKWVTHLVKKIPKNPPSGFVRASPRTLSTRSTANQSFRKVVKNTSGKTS
Description: Variations in ATP concentrations were tested to better understand potential selectivity in ischemic and diseased tissue where ATP concentrations may be low and impact selectivity.
[…] Both services use a direct filter-binding, radiometric kinase assay with slight variation in protocol.
The top concentration tested was 100 μM for both services. Test compounds were prepared in 100% DMSO at 50× final test concentration and were diluted to 1× in the assay with a final DMSO concentration of 2%.
For one assay, the substrate […] (SEQ ID NO:1) (30 μM) was mixed with reaction buffer (Table 4) and the kinase domain from either the ROCK1 or ROCK2 (as indicated in Table 4). Next, the compounds (in DMSO) were delivered into the mixture via acoustic mixing technology (Echo550, nanoliter range) (SelectScience, Waltham, Mass.), and incubated at RT for 20 min. […] Reactions were then spotted onto P81 ion exchange paper followed by scintillation counting.
The reaction was stopped by the addition of 3% phosphoric acid and 10 μL of the reaction was spotted onto P30 filtermat, washed 3 times in 75 mM phosphoric acid and once in methanol prior to scintillation counting.

hBMVEC monolayer = experiment: LPA-treated hBMVECs, endothelial monolayer integrity; format: cell-based, human; settings: 1 μM or 10 μM, 20 μM LPA, Example 16, present tense
Description: (§1) Cells are exposed to each dose for 1 hr, and are then stimulated with 20 μM LPA for either 5 min or 1 hr as described below. All experiments are conducted in triplicate and analyzed by 2 independent assessors blinded to both cell line and treatment.
To examine hBMVECs monolayer integrity, cells are plated on PDL-coated coverslips (Corning) coated with Fibronectin, Collagen-1 and gelatin. 50,000 cells are seeded on each coverslip situated in a 24-well plate. Cells are grown for 3 days in ENDO-growth media (Neuromics) at 37° C./5% CO2. […] The medium is exchanged for ENDO basal media supplemented with 1% HSA, 20 μM of LPA (Santa Cruz Biotech; Santa Cruz, Calif.) and the appropriate amount of compound being tested. After 60 min, cells were fixed with 4% paraformaldehyde and stained for actin-phalloidin (ThermoFisher) and V-Cadherin (Cell Signaling), and then were mounted on microscope slides. Coverslips were imaged by fluorescence microscopy and the cell-free holes in the monolayer are measured using Image J. 3.

ROCK1 [3] = molecular target: T2, ROCK1
Description: (§2) The assay is performed by combining the DNA-tagged kinase, immobilized ligand, and a test compound. The ability of the test compound to compete with the immobilized ligand is measured via quantitative PCR of the DNA tag.
(§3) The highest concentration tested was 30 μM.

[4] = test system: Rho/ROCK activity (MLC2 diphosphorylation) in human brain microvascular endothelial cells; experiment: LPA-treated hBMVECs, pMLC2 T18/S19 immunoblot; format: cell-based; settings: 20 μM LPA, Example 16, present tense, no data shown
Description: as §1
Cells are subjected to biochemical analysis of diphosphorylated MLC2 (Threonine 18/Serine 19 phosphorylation sites) and phosphorylated cofilin (Serine 9 phosphorylation site) using SDS-PAGE and immunoblotting. Cells are plated in 24-well tissue culture plates coated with 70 μg/ml rat collagen-1 (Corning) and grown in ENDO-growth media (Neuromics) for 3 days at 37° C./5% CO2 until confluency. […] The medium is exchanged for ENDO basal media supplemented with 1% HSA, 20 μM of LPA (Santa Cruz Biotech; Santa Cruz, Calif.) and the appropriate amount of compound being tested. After 5 min, the medium is aspirated and the cells are briefly washed with 1×PBS. Proteins are extracted from cells by lysis with RIPA buffer supplemented with complete protease/phosphatase inhibitor (HALT, Thermo Fisher Scientific), reduced and denatured using Laemmli sample buffer (BioRad; Hercules, Calif., beta-mercaptoethanol and subjected to SDS-PAGE.
Denatured samples are electrophoresed in reducing 10% Bis-Tris-PA gels (Novex; Thermo-Fisher), and are transferred onto 0.25 μm PVDF membranes (EMD Millipore). Membranes are probed using amti-pMLC2 T18/S19 (1:500; Cell Signaling) or anti-pCofilin (1:500, Cell Signaling S9) and anti-glyceraldehyde 3-phosphate dehydrogenase loading control (GAPDH, 1:10000; Abcam, Cambridge, Mass.). Protein levels are detected using a chemiluminescence substrate (Super Signal West, ThermoFisher) and images are captured using a FluoroChem SP Imaging System.

HUVEC monolayer = experiment: LPA-treated HUVECs, endothelial monolayer integrity; format: cell-based, human; settings: 1 μM or 10 μM, 20 μM LPA 60 min
Description: (§4) Cell lines were exposed to each dose for 1 hr, and then are stimulated with 20 μM LPA for either 5 min or 1 hr as described below. All experiments were conducted in triplicate and analyzed by two independent assessors blinded to both cell line and treatment.
To examine HUVEC monolayer integrity, cells were plated on PDL-coated coverslips (Corning) coated with fibronectin, collagen-1 and gelatin. 50,000 cells were seeded on each coverslip situated in a 24-well plate. Cells were grown for 3 days at 37° C./5% CO2. […] The medium was exchanged by Medium 200 supplemented with 0.1% HSA and 20 μM of LPA (Santa Cruz) and incubated for 60 min.
After LPA stimulation, cells were fixed with 4% paraformaldehyde and stained for actin-phalloidin (ThermoFisher, Waltham, Mass.) and V-Cadherin (Cell Signaling, Danvers, Mass.) and mounted on microscope slides. Coverslips were imaged by fluorescence microscopy and the cell free holes in the monolayer are measured using Image J (freeware; https://imagej.nih.gov/ij/).

[5] = test system: Rho/ROCK activity (MLC2 diphosphorylation) in HUVECs; experiment: LPA-treated HUVECs, pMLC2 T18/S19 immunoblot; format: cell-based, human; settings: 1-100 μM 1 hr, 20 μM LPA 5 min
Description: as §4
Cells were subjected to biochemical analysis of diphosphorylated MLC2 (Threonine 18/Serine 19 phosphorylation sites) and cofilin (Serine 9 phosphorylation site) using SDS-PAGE and immunoblotting. Cells were plated in 24-well tissue culture plates coated with 70 μg/ml rat collagen-1 (Corning; Corning, N.Y.), and grown for 2 d to 3 d at 37° C./5% CO2 until confluency. […] Then medium was exchanged for Medium 200 supplemented with 0.1% HSA (Sigma-Aldrich) and 20 μM of LPA (Santa Cruz Biotech; Santa Cruz, Calif.) and incubated for 5 min. After LPA stimulation, proteins were extracted from cells by lysis with RIPA buffer supplemented with HALT complete protease/phosphatase inhibitor (ThermoFisher, Waltham, Mass.), reduced and denatured using Laemmli sample buffer (BioRad, Hercules, Calif.)/beta-mercaptoethanol and subjected to SDS-PAGE.
Denatured samples were electrophoresed in reducing 10% Bis-Tris-gels polyacrylamide gels (Novex; Thermo-Fisher, Waltham, Mass.) and were transferred onto 0.25 μm PVDF membranes (EMD Millipore, Billerica, Mass.). Membranes are probed using amti-pMLC2 T18/S19 (1:500; Cell Signaling, Danvers, Mass.) or anti-pCofilin S9 (1:500, Cell Signaling, Danvers, Mass.) and anti-glyceraldehyde 3-phosphate dehydrogenase loading control (GAPDH, 1:10000; Abcam). Protein levels were detected using chemiluminescence substrate (Super Signal West, ThermoFisher, Waltham, Mass.) and images captured using a FluoroChem SP Imaging System.

ROCK2 [6] = molecular target: T1, ROCK2; settings: for Fold-Difference: ROCK1 KD vs ROCK2 KD
Description: as §2, §3

[7] = test system: ROCK2 activation (phospho-cofilin); experiment: Transient MCAO stroke model, phospho-cofilin Western blot left versus right brain; format: in vivo, mouse; settings: 10 mg/kg I.P. within 30 min after MCAO, tissue 24 hr post MCAO
Description: The murine intraluminal monofilament model of middle cerebral artery occlusion (MCAO) is used on mice in this study. MCAO involves the insertion of a surgical filament into the external carotid artery and threading it forward into the internal carotid artery until the tip occludes the origin of the MCA, resulting in a cessation of blood flow and subsequent brain infarction in the MCA territory. The technique is used herein to model transient occlusion. If the filament is removed after 1 h, reperfusion is achieved (transient MCAO). This study determines the most efficacious dose and route of administration that reduce Rho-kinase 2 (ROCK2) activation following transient MCAO-induced stroke in mice. The pharmacodynamic response is also determined in this study.
Twenty-eight 9-wk old C57BL/6 (Charles River Laboratories) were used in this study. For surgery, the mouse was placed in a supine position on an infrared heating pad. The fur over the ventral neck was shaved and the skin was disinfected with 70% ethanol and povidone iodine. Under a stereo dissecting microscope, a 1 cm midline incision was made on the neck and retractors were used to expose the left common carotid artery (CCA), the external carotid artery (ECA) and the internal carotid artery (ICA). The arteries were carefully dissected to free them from surrounding nerves and fascia. The ECA was dissected further distally and two 8-0 silk sutures are tied around the ECA stump and a vascular clamp was applied at the bifurcation of the CCA into the ECA and ICA. A small incision was made at the end of ECA stump with Vannas-style spring scissors. A blunt 5-0 monofilament suture (Doccol) was inserted into the incision and advanced from the lumen of the ECA into the ICA for a distance of 9-10 mm beyond the bifurcation of CCA to occlude the origin of MCA. For the mouse model, a distance of 9 mm-11 mm rostral to the CCA bifurcation is inserted. After 60 min., the monofilament was removed. The incision was sutured with 4.0 prolene sutures. […] The mouse is allowed to recover on a heating pad until thermoregulation is re-established.
For Western blot analysis, mice were anesthetized using isoflurane and decapitated. […]
20 μL protease inhibitor (Halt, Protease, Fisher Scientific, Pittsburgh, Pa.) and 10 μL phosphatase inhibitor (Fisher Scientific) were added to 1 mL RIPA buffer (Santa Cruz Biotechnology, Dallas, Tex.). […] The protein concentration of each sample was determined using the DC Protein Assay Kit and following the manufacturer's instructions.
The left and right hemispheres of each brain were homogenized and prepared for Western blotting, and the signal of phospho-cofilin was measured quantitatively by densitometry compared to an internal standard, cyclophilin. […]

phospho-MLC2 (Ser19) = experiment: Transient MCAO stroke model, phospho-MLC2 (Ser19) immunohistochemistry of insular cortex; format: in vivo, mouse; settings: 10 mg/kg I.P.
Description: For immunohistochemistry, mice were anesthetized using isoflurane and perfused intracardially using paraformaldehyde (4% PFA), brain and weights were recorded. Brain specimens from fixed animals were frozen in OCT and sectioned using a cryostat.
Frozen tissue sections embedded in OCT were analyzed by immunohistochemistry. The left side of the brain slice contains ischemic tissue due to the MCAO while the right hemisphere acts as a control without ischemia. Staining with these antibodies provide biomarkers for both ischemic area and ROCK2 activation.

[8] = molecular target: NET (norepinephrine transporter) (Homo sapiens (Human), UniProt P23975); settings: Sturdivant et al., ibid.; cited from earlier work
[9] = molecular target: SERT (serotonin transporter) (Homo sapiens (Human), UniProt P31645); settings: Sturdivant et al., ibid.; cited from earlier work
[10] = test system: human umbilical vein endothelial cells (HUVECs); experiment: LPA-stimulated HUVECs, actin stress fibers and vinculin; format: cell-based; settings: 50 μM, 20 μM LPA 10 min
Description: Primary HUVEC cells (Gibco®, Thermo Fisher, Waltham, Mass.) are cultured in endothelial growth media (Gibco® Medium 200 basal media Cat supplemented with Gibco® Large Vessel Endothelial Supplement). HUVECs between passage 1 and 4 are used for all experiments. HUVECs are cultured on poly-D-lysine-treated glass coverslips (Corning, Corning, N.Y.) coated with 70 μg/ml rat collagen I (Corning, Corning, N.Y.) and cultured for 4 d until a confluent monolayer of cells is established. […] Then HUVECs are stimulated with 20 μM LPA for 10 min and subsequently fixed using 4% paraformaldehyde (PFA)/sucrose solution.
After PFA fixation, cells on coverslips are permeabilized with TBS-Triton-X100 (0.1%), blocked with 1% bovine serum albumin and incubated with mouse vinculin primary antibody (Table 16). Vinculin immunolabelling is visualized using a secondary anti-mouse fluorescent antibody (Table 16). Actin cytoskeleton is visualized by staining with fluorescent phalloidin (Table 16), a compound that specifically binds F-actin filaments. Epifluorescence microscopy is used to acquire images of Immuno- and phalloidin fluorescence, respectively.

ROCK2 [11] = molecular target: T1, ROCK2; experiment: ROCK2 inhibition curves, MYPT1 substrate plate assay; format: biochemical; settings: purified ROCK2, MYPT1 substrate
Description: Each compound was dissolved at 100 mM in DMSO. This compound-DMSO solution is diluted to 500 μM in dH2O. Serial dilutions were prepared so that a semi-log range of compound is present after being diluted 5× in other assay reagents, from 100 μM through 1 nM.
10 μL of each concentration of each compound was added in duplicate to individual wells of a 96-well Maxisorp plate (ThermoFisher) pre-coated with the ROCK2 substrate MYPT1 (ThermoFisher). dH2O is added as a negative control.
Using a multichannel pipettor, […] of final volume per well was made by the addition of the following of each solution to begin the reaction: 10 μL 20 mM MOPS pH 7.2, 25 mM β-glycerophosphate, 5 mM EGTA, 1 mM Na3VO4, and 1 mM DTT, 10 μL 50 μM ATP, 10 μL 75 mM MgCl2, and 10 μL 1 mU/μL ROCK2 solution. […]
100 μL TMB/E solution was added to each well with a multichannel pipette. Upon sufficient color development, the reaction was stopped using 100 μL stop solution and absorbance read using a Wallac Victor2 plate reader at 450 nm.
Because absorbance values proportional to ROCK2 activity, plotting absorbance at 450 nm versus final concentration of metabolite and parent compound provides inhibition curves. Relative inhibitory profiles were determined through 4PL analysis of these curves. Variations in calculated IC50 are common before assay optimization due to variations in experimental variables.

[12] = read-out: Compound IC50 ROCK2 10 μM ATP, CRO Eurofins, 10 μM ATP
[13] = read-out: Compound IC50 ROCK1 10 μM ATP, CRO Eurofins, 10 μM ATP

T1 sequence (O75116 whole entry, species assumed): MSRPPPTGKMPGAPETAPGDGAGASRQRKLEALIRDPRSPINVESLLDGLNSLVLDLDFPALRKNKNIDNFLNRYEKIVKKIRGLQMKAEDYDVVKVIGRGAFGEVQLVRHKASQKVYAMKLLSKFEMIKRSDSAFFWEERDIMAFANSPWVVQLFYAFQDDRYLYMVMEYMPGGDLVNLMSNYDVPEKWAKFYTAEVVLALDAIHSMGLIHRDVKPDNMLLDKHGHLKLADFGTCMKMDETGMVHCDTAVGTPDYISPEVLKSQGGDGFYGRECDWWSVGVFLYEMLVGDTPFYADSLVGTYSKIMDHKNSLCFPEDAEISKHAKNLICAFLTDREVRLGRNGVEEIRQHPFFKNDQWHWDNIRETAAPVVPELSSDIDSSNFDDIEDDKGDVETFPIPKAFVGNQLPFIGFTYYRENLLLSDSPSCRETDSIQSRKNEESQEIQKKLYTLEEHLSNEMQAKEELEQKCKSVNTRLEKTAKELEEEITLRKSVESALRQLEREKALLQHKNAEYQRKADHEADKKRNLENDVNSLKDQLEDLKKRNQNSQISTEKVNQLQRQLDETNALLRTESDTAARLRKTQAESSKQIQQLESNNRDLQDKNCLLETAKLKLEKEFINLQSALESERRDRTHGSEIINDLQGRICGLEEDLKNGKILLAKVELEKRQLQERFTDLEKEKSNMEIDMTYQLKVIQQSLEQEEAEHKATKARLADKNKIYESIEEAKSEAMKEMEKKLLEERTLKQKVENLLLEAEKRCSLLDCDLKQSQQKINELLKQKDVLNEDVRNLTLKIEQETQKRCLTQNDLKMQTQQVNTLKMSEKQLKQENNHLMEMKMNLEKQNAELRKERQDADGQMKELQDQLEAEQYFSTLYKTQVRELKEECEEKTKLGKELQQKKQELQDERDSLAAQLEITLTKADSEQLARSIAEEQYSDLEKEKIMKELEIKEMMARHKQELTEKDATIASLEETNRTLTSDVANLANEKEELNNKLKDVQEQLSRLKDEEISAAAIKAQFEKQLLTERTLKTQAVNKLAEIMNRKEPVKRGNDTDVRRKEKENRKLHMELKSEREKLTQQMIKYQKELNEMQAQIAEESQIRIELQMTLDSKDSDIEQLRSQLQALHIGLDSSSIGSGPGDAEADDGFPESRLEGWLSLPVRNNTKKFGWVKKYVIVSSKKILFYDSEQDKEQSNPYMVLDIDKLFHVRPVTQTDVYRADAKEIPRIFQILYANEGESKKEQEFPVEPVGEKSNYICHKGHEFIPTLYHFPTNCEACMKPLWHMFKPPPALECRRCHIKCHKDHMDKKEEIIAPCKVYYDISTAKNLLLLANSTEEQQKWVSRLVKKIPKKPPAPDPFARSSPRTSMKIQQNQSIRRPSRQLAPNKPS

C[C@H](N)C1CCN(S(=O)(=O)c2cccc3cnccc23)CC1
IC50 (ROCK2 [1]; 10 μM ATP, Table 2, read-out: Compound IC50 ROCK2): 730 nM
Fold-Difference (ROCK2 [1]; CRO Eurofins, 10 μM ATP): 14.1
Fold-Difference (ROCK2 [1]; CRO Reaction Biology, 10 μM ATP): 2.0
Fold-Difference (ROCK2 [1]; ROCK1 (70 μM ATP) vs ROCK2 (15 μM ATP) IC50): 57.9
Fold-Difference (ROCK2 [1]; ROCK1 vs ROCK2 IC50, 10 μM ATP): 14.1
IC50 (ROCK2 [1]; [12]): 730 nM
IC50 (ROCK2 [1]; read-out: Compound IC50 ROCK2 10 μM ATP, CRO Reaction Biology, 10 μM ATP): 720 nM
IC50 (ROCK2 [1]; read-out: Compound IC50 ROCK2 15 μM ATP, Km ATP 15 μM, Table 3): 1000 nM
IC50 (ROCK2 [1]; read-out: Compound IC50 ROCK2 15 μM ATP, Km ATP 15 μM, Table 7): 1000 nM
IC50 (ROCK1 [2]; 10 μM ATP, Table 2, read-out: Compound IC50 ROCK1): 10200 nM
IC50 (ROCK1 [2]; [13]): 10200 nM
IC50 (ROCK1 [2]; read-out: Compound IC50 ROCK1 10 μM ATP, CRO Reaction Biology, 10 μM ATP): 1440 nM
IC50 (ROCK1 [2]; read-out: Compound IC50 ROCK1 70 μM ATP, Km ATP 70 μM, Table 3): 57900 nM
IC50 (ROCK1 [2]; read-out: Compound IC50 ROCK1 70 μM ATP, Km ATP 70 μM, Table 7): 57900 nM
monolayer integrity / Rho/ROCK activation after LPA (hBMVEC monolayer): neither concentration reverses the effect of LPA
Kd (ROCK1 [3]; read-out: ROCK1 KD, average of duplicate determinations, Table 5): 155 nM
Kd (ROCK1 [3]; read-out: ROCK1 Kd, Table 1): 120 nM
effect on MLC2 diphosphorylation (pMLC2 T18/S19) [4]: reduce MLC2 diphosphorylation
monolayer integrity after LPA (HUVEC monolayer): neither concentration reverses the effect of LPA
effect on MLC2 diphosphorylation (pMLC2 T18/S19) [5]: reduce MLC2 diphosphorylation
Fold-Difference (ROCK2 [6]; Table 5): 0.9
Fractional Selectivity for ROCK2 (ROCK2 [6]; ratio of dissociation constants ROCK1/ROCK2): 0.92
Kd (ROCK2 [6]; read-out: ROCK2 KD, average of duplicate determinations, Table 5): 160 nM
Kd (ROCK2 [6]; read-out: ROCK2 Kd, Table 1): 130 nM

CC(N)C1CCN(S(=O)(=O)c2cccc3cnccc23)CC1 (racemic) [BA-1049]
Fold-Difference (ROCK2 [1]; CRO Eurofins, 10 μM ATP): 12.4
Fold-Difference (ROCK2 [1]; CRO Reaction Biology, 10 μM ATP, listed as Racemic BA-1049: Lot 1): 2.1
Fold-Difference (ROCK2 [1]; CRO Reaction Biology, 10 μM ATP, listed as Racemic BA-1049: Lot 2): 2.8
Fold-Difference (ROCK2 [1]; CRO Upstate Cell Signaling, 10 μM ATP): 12.8
IC50 (ROCK2 [1]; [12]): 550 nM
IC50 (ROCK2 [1]; read-out: Compound IC50 ROCK2 10 μM ATP, CRO Reaction Biology, 10 μM ATP, listed as Racemic BA-1049: Lot 1): 600 nM
IC50 (ROCK2 [1]; read-out: Compound IC50 ROCK2 10 μM ATP, CRO Reaction Biology, 10 μM ATP, listed as Racemic BA-1049: Lot 2): 1020 nM
IC50 (ROCK2 [1]; read-out: Compound IC50 ROCK2 10 μM ATP, CRO Upstate Cell Signaling, 10 μM ATP): 800 nM
IC50 (ROCK1 [2]; [13]): 6800 nM
IC50 (ROCK1 [2]; read-out: Compound IC50 ROCK1 10 μM ATP, CRO Reaction Biology, 10 μM ATP, listed as Racemic BA-1049: Lot 1): 1280 nM
IC50 (ROCK1 [2]; read-out: Compound IC50 ROCK1 10 μM ATP, CRO Reaction Biology, 10 μM ATP, listed as Racemic BA-1049: Lot 2): 1020 nM
IC50 (ROCK1 [2]; read-out: Compound IC50 ROCK1 10 μM ATP, CRO Upstate Cell Signaling, 10 μM ATP): 10200 nM
ratio of phospho-cofilin expression left (MCAO) versus right hemisphere [7]: strongly reduced
Kd (ROCK1 [3]; read-out: ROCK1 KD, average of duplicate determinations, Table 5, listed as Racemic BA-1049: Lot 1): 54 nM
Kd (ROCK1 [3]; read-out: ROCK1 KD, average of duplicate determinations, Table 5, listed as Racemic BA-1049: Lot 2): 89 nM
phospho-MLC2 (Ser19) staining of small blood vessels of insular cortex (phospho-MLC2 (Ser19)): even more effective than Fasudil at reducing small vessel staining
Fold-Difference (ROCK2 [6]; Table 5, listed as Racemic BA-1049: Lot 1): 1.2
Fold-Difference (ROCK2 [6]; Table 5, listed as Racemic BA-1049: Lot 2): 1.3
Kd (ROCK2 [6]; read-out: ROCK2 KD, average of duplicate determinations, Table 5, listed as Racemic BA-1049: Lot 1): 46 nM
Kd (ROCK2 [6]; read-out: ROCK2 KD, average of duplicate determinations, Table 5, listed as Racemic BA-1049: Lot 2): 66 nM

Cc1ccc(C(=O)OCc2ccc([C@@H](CN)C(=O)Nc3ccc4cnccc4c3)cc2)c(C)c1 [AR-13324]
% Inhibition of Neurotransmitter Transporter Activity, NET [8]: 96%
% Inhibition of Neurotransmitter Transporter Activity, SERT [9]: 94%

O=S(=O)(c1cccc2cnccc12)N1CCCNCC1 [Fasudil]
phospho-MLC2 (Ser19) staining of small blood vessels of insular cortex (phospho-MLC2 (Ser19)): reduces the amount of staining
actin stress fiber formation upon LPA stimulation [10]: prevents such formation of stress fiber
vinculin immunofluorescence, integrity of HUVEC monolayer upon LPA stimulation [10]: upregulation of vinculin-positive focal adhesion complexes associated with a decreased cell confluency

C[C@@H](N)C1CCN(S(=O)(=O)c2cccc3c[n+]([O-])ccc23)CC1 [N-oxide-BA-1049 (R)]
inhibitory activity for ROCK2 relative to parent BA-1049 (R) (ROCK2 [11]): does not exhibit any inhibitory activity
effect on MLC2 diphosphorylation (pMLC2 T18/S19) [4]: do not show such an effect
effect on MLC2 diphosphorylation (pMLC2 T18/S19) [5]: did not show such an effect
